32 compounds from patent publication US8906852B2 (MethylGene Inc., priority 2010, dated 2014) can be followed below.

T1 sequence (P35968 806-1356): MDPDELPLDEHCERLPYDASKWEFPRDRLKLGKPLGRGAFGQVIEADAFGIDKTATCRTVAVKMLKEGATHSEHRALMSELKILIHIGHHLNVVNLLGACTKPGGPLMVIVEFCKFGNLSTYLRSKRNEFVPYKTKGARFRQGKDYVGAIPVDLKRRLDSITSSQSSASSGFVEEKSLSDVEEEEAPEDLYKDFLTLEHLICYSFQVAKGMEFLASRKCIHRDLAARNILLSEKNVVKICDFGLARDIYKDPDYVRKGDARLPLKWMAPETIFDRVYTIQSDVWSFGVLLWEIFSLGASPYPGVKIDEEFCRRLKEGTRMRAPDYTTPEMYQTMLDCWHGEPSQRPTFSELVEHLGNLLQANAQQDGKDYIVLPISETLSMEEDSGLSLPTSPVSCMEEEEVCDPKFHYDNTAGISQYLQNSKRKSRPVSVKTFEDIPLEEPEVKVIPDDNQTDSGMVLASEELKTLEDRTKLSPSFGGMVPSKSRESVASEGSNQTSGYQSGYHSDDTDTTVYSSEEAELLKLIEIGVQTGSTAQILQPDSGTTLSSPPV

The experiment concerns the target T1, VEGFR/KDR (Homo sapiens, UniProt P35968).
T1 construct: made in house; host or cells: Sf9 cells (Spodoptera frugiperda), baculovirus
In words: VEGFR/KDR kinase inhibition, DELFIA assay. The format is biochemical. The following applies: ATP 0.6 uM (2x Km), enzyme 5 nM. As for the experimental part: Inhibition of VEGFR/KDR is measured in a DELFIA™ assay (Perkin Elmer). The substrate poly(Glu4, Tyr) is immobilized onto black high-binding polystyrene 96-well plates. The coated plates are washed and stored at 4° C. During the assay, the enzyme is pre-incubated with inhibitor and Mg-ATP on ice in polypropylene 96-well plates for 4 minutes, and then transferred to the coated plates. The subsequent kinase reaction takes place at 30° C. for 10-30 minutes. ATP concentrations in the assay are 0.6 uM for VEGFR/KDR (2× the Km). Enzyme concentration is 5 nM. After incubation, the kinase reactions are quenched with EDTA and the plates are washed. Phosphorylated product is detected by incubation with Europium-labeled anti-phosphotyrosine MoAb. After washing the plates, bound MoAb is detected by time-resolved fluorescence in a Gemini SpectraMax reader (Molecular Devices). Compounds are evaluated over a range of concentrations, and IC50 values (concentration of compounds giving 50% inhibition of enzymatic activity) are determined.
Regarding `O=C(Nc1ccc(Oc2ccnc3cc(-c4ccc(CN5CCCC(C(=O)NCCO)C5)cn4)sc23)c(F)c1)NC1CC1` (centres unmarked) [Compound 492, 1-((6-(7-(4-(3-cyclopropylureido)-2-fluorophenoxy)thieno[3,2-b]pyridin-2-yl)pyridin-3-yl)methyl)-N-(2-hydroxyethyl)piperidine-3-carboxamide], the IC50 (usually the midpoint of a concentration-inhibition curve) is below 50 nM. Consider `O=C(Nc1ccc(Oc2ccnc3cc(-c4ccc(C(=O)O)cn4)sc23)c(F)c1)NC1CC1` [Compound 225, 6-(7-(4-(3-Cyclopropylureido)-2-fluorophenoxy)thieno[3,2-b]pyridin-2-yl)nicotinic acid], for which the IC50 is below 50 nM. In the case of `CN(CCO)C1CCN(Cc2ccc(-c3cc4nccc(Oc5ccc(NC(=O)NC6CC6)cc5F)c4s3)nc2)CC1` [Compound 417] it was below 50 nM.

In the case of `COCCN(Cc1ccc(-c2cc3nccc(Oc4ccc(NC(=O)NC5CC5)cc4F)c3s2)nc1)C(=O)N(C)C` [Compound 4, N-[3-((6-(7-(4-(3-cyclopropylureido)-2-fluorophenoxy)thieno[3,2-b]pyridin-2-yl)pyridin-3-yl)methyl)]-N-(1,1-dimethyl)-N-[3-(2-methoxyethyl)]urea], the IC50 is below 50 nM.

Take `Cn1c(CN2CCOCC2)cnc1-c1cc2nccc(Oc3ccc(NC(=O)NC4CC4)cc3F)c2s1` [Compound 298]: the IC50 was below 50 nM. The value for `O=C(CCn1cncn1)NC1CCN(Cc2ccc(-c3cc4nccc(Oc5ccc(NC(=O)NC6CC6)cc5F)c4s3)nc2)CC1` [Compound 347] was below 50 nM; that for `COCCOCCOCCOCCN(C)C1CCN(Cc2ccc(-c3cc4nccc(Oc5ccc(NC(=O)NC6CC6)cc5F)c4s3)nc2)CC1` [Compound 418] was below 50 nM; that for `O=C(Nc1ccc(Oc2ccnc3cc(-c4ccc(CN5CCN(Cc6ccccn6)CC5)cn4)sc23)c(F)c1)NC1CC1` [Compound 326, 1-cyclopropyl-3-(3-fluoro-4-(2-(5-((4-(pyridin-2-ylmethyl)piperazin-1-yl)methyl)pyridin-2-yl)thieno[3,2-b]pyridin-7-yloxy)phenyl)urea] was below 50 nM. In the case of `CCNC(=O)N(CCOC)Cc1ccc(-c2cc3nccc(Oc4ccc(NC(=O)NC5CC5)c(F)c4F)c3s2)nc1` [Compound 35, N-[3-((6-(7-(4-(3-cyclopropylureido)-2,3-difluorophenoxy)thieno[3,2-b]pyridin-2-yl)pyridin-3-yl)methyl)]-N-(1-ethyl)-N-(2-methoxyethyl)urea] it was below 50 nM; in that of `CN(C(=O)OC(C)(C)C)C1CCN(Cc2ccc(-c3cc4nccc(Oc5ccc(NC(=O)NC6CC6)cc5F)c4s3)nc2)CC1` [342-A], below 50 nM. In turn, `O=C(Nc1ccc(Oc2ccnc3cc(C4=CCNCC4)sc23)c(F)c1)NC1CC1` [Compound 271-A, 1-Cyclopropyl-3-(3-fluoro-4-(2-(1,2,3,6-tetrahydropyridin-4-yl)thieno[3,2-b]pyridin-7-yloxy)phenyl)urea] gave an IC50 of 50 to 100 nM. For the compound `CC(=O)OCC(=O)N1CCN(C(=O)Cn2cc(-c3cc4nccc(Oc5ccc(NC(=O)NC6CC6)cc5F)c4s3)nn2)CC1` [Compound 390], the IC50 is below 50 nM. In the case of `COCCOCCOCC(=O)N1CCN(Cc2ccc(-c3cc4nccc(Oc5ccc(NC(=O)NC6CC6)cc5F)c4s3)nc2)CC1` [Compound 588, 1-Cyclopropyl-3-(3-fluoro-4-(2-(5-((4-(2-(2-(2-methoxyethoxy)ethoxy)acetyl)piperazin-1-yl)methyl)pyridin-2-yl)thieno[3,2-b]pyridin-7-yloxy)phenyl)urea] it was below 50 nM; in that of `C[C@@H]1CN(Cc2ccc(-c3cc4nccc(Oc5ccc(NC(=O)NC6CC6)cc5F)c4s3)nc2)C[C@H](C)N1C(=O)CO` [Compound 531, 1-cyclopropyl-3-(3-fluoro-4-(2-(5-(((3S,5R)-4-(2-hydroxyacetyl)-3,5-dimethylpiperazin-1-yl)methyl)pyyridin-2-yl)thieno[3,2-b]pyridin-7-yloxy)phenyl)urea], below 50 nM. In the case of `COCCNCc1ccc(-c2cc3nccc(Oc4ccc(NC(=O)CC5CC5)cc4F)c3s2)nc1` [Compound 13, 2-cyclopropyl-N-(3-fluoro-4-(2-(5-((2-methoxyethylamino)methyl)pyridin-2-yl)-thieno[3,2-b]pyridin-7-yloxy)phenyl)acetamide] it was 50 to 100 nM; in that of `CS(=O)(=O)N1CCN(Cc2ccc(-c3cc4nccc(Oc5ccc(NC(=O)NC6CC6)cc5F)c4s3)nc2)CC1` [Compound 54-F, 1-cyclopropyl-3-(3-fluoro-4-(2-(5-((4-(methylsulfonyl)piperazin-l-yl)methyl)pyridin-2-yl)thieno[3,2-b]pyridin-7-yloxy)phenyl)urea], below 50 nM. The value for `O=C(O)CCNC(=O)N1CCN(Cc2ccc(-c3cc4nccc(Oc5ccc(NC(=O)NC6CC6)cc5F)c4s3)nc2)CC1` [Compound 559] was below 50 nM; that for `COCCN(Cc1ccc(-c2cc3nccc(Oc4ccc(NC(=O)NC5CC5)nc4)c3s2)nc1)C(C)=O` [Compound 40, N-((6-(7-(6-(3-cyclopropylureido)-pyridin-3-yloxy)thieno[3,2-b]-pyridirin-2-yl)pyridin-3-yl)methyl)-N-(2-methoxyethyl)-acetamide] was 50 to 100 nM; that for `CC(C)[C@H](N)C(=O)OCCN1CCN(Cc2ccc(-c3cc4nccc(Oc5ccc(NC(=O)NC6CC6)cc5F)c4s3)nc2)CC1` [Compound 79, (S)-2-(4-((6-(7-(4-(3-cyclopropylureido)-2-fluorophenoxy)thieno[3,2-b]pyridin-2-yl)pyridin-3-yl)methyl)piperazin-1-yl)ethyl 2-amino-3-methylbutanoate] was below 50 nM. Regarding `CN1CCN(C(=O)C2CCN(C(=O)c3cc4nccc(Oc5ccc(NC(=O)NC6CC6)cc5F)c4s3)CC2)CC1` [Compound 472, 1-cyclopropyl-3-(3-fluoro-4-(2-(4-(4-methylpiperazine-l-carbonyl)piperidine-1-carbonyl)thieno[3,2-b]pyridin-7-yloxy)phenyl)urea], the IC50 fell in the range of 50 to 100 nM. In turn, `CC(C)(C)C(=O)OC1CN(C(=O)c2cc3nccc(Oc4ccc(NC(=O)NC5CC5)cc4F)c3s2)C1` [Compound 454] registered an IC50 below 50 nM.

In turn, `O=C(Nc1ccc(Oc2ccnc3cc(-c4ccc(CN5C(=O)CCC5=O)cn4)sc23)c(F)c1)NC1CC1` [Compound 140, 1-cyclopropyl-3-(4-(2-(5-((2,5-dioxopyrrolidin-1-yl)methyl)pyridin-2-yl)thieno[3,2-b]pyridin-7-yloxy)-3-fluorophenyl)urea] had an IC50 below 50 nM. In the case of `O=C(Nc1ccc(Oc2ccnc3cc(-c4ccc(C(=O)N5CCOC(C(=O)O)C5)cn4)sc23)c(F)c1)NC1CC1` (centres unmarked) [Compound 241, 4-(6-(7-(4-(3-cyclopropylureido)-2-fluorophenoxy)thieno[3,2-b]-pyridin-2-yl)nicotinoyl)morpholine-2-carboxylic acid], the IC50 is below 50 nM.

The compound `O=C(Nc1ccc(Oc2ccnc3cc(C4=CCN(CCCCO)CC4)sc23)c(F)c1)NC1CC1` [Compound 277, 1-cyclopropyl-3-(3-fluoro-4-(2-(1-(4-hydroxybutyl)-1,2,3,6-tetrahydropyridin-4-yl)thieno[3,2-b]pyridin-7-yloxy)phenyl)urea] returned a 50% inhibitory concentration (IC50) of 100 to 250 nM.

The compound `CN(C)CCNC(=O)C1CCCN(Cc2ccc(-c3cc4nccc(Oc5ccc(NC(=O)NC6CC6)cc5F)c4s3)nc2)C1` (centres unmarked) [Compound 491, 1-((6-(7-(4-(3-cyclopropylureido)-2-fluorophenoxy)thieno[3,2-b]pyridin-2-yl)pyridin-3-yl)methyl)-N-(2-(dimethylamino)ethyl)piperidine-3-carboxamide] came in with an IC50 below 50 nM. `COCCNCCc1ccc(-c2cc3nccc(Oc4ccc(NC(=S)NC(=O)Cc5ccc(F)cc5)cc4F)c3s2)nc1` [Compound 187, N-(3-fluoro-4-(2-(5-(2-(2-methoxyethylamino)ethyl)pyridin-2-yl)thieno[3,2-b]pyridin-7-yloxy)phenylcarbamothioyl)-2-(4-fluorophenyl)acetamide] displayed an IC50 below 50 nM.

In the case of `CCNC(=O)N1CCN(C(=O)Cn2cc(-c3cc4nccc(Oc5ccc(NC(=O)NC6CC6)cc5F)c4s3)nn2)CC1` [Compound 394], the half-inhibitory concentration (IC50) is below 50 nM. In the case of `O=C(Nc1ccc(Oc2ccnc3cc(-c4ccc(CN5CCN(Cc6cccnc6)CC5)cn4)sc23)c(F)c1)NC1CC1` [Compound 324, 1-cyclopropyl-3-(3-fluoro-4-(2-(5-((4-(pyridin-3-ylmethyl)piperazin-1-yl)methyl)pyridin-2-yl)thieno[3,2-b]pyridin-7-yloxy)phenyl)urea] it was below 50 nM; in that of `O=C(Nc1ccc(Oc2ccnc3cc(-c4ccc(CN5CCNCC5=O)cn4)sc23)c(F)c1)NC1CC1` [Compound 72], below 50 nM; in that of `CC(C)(C)C(=O)O[C@H]1CCN(C(=O)c2cc3nccc(Oc4ccc(NC(=O)NC5CC5)cc4F)c3s2)C1` [Compound 448], 100 to 250 nM. In turn, `O=C(Nc1ccc(Oc2ccnc3cc(C4=CCN(CCCN5CCOCC5)CC4)sc23)c(F)c1)NC1CC1` [Compound 276, 1-cyclopropyl-3-(3-fluoro-4-(2-(1-(3-morpholinopropyl)-1,2,3,6-tetrahydropyridin-4-yl)thieno[3,2-b]pyridin-7-yloxy)phenyl)urea] displayed an IC50 of 50 to 100 nM.

Compound `O=C(CO)NC1CCN(Cc2ccc(-c3cc4nccc(Oc5ccc(NC(=O)NC6CC6)cc5F)c4s3)nc2)CC1` [Compound 346] showed a 50% inhibitory concentration (IC50) below 50 nM.
